Our source for the viability values is paper PMC12040169 (PLOS Biology, 2025).

The term viability denotes a read-out of living cells in per cent, often relative to untreated cells.

SMILES strings stand for the structures.

The nature of the first data set: in vitro. The following applies: human, hela cells, % viability.
For `O=C1NC/C=C/CC2(CCN(c3ncccn3)CC2)C(=O)NCCOc2ccccc21` [CBK292081], the viability at 28.5 h, 10 µM stood at 90.3%.

With `N#Cc1ccc(NC(=O)CSc2cnn[nH]2)cc1` [CBK269931], the viability at 28.5 h, 10 µM is 87.7%.

As for `CCOc1ccc(C(=O)C2=C(O)C(=O)N(CCN3CCOCC3)C2c2ccc(N(C)C)cc2)c(C)c1` (stereo not shown) [CBK264650], the viability at 28.5 h, 10 µM worked out at 92.7%.

For `O=C(/C=C/c1ccco1)NC(=S)Nc1ccc(O)c(-c2nc3ccccc3s2)c1` [CBK264344], the viability at 28.5 h, 10 µM amounted to 85.7%.

As for `Cn1cccc1C(=O)NCc1ccc(OC2CCNCC2)cc1` [CBK036360T], the viability at 28.5 h, 10 µM came out at 93%.

As to `CCCOc1ccc(Br)cc1/C=N/O` [CBK288491], the viability at 28.5 h, 10 µM was 110%.

In the case of `c1ccc2cc(-c3cc(Nc4ccc5[nH]ccc5c4)ncn3)ccc2c1` [CBK090853], the viability at 28.5 h, 10 µM came to 80.1%.

For `O=C(Cn1nc(C(F)(F)F)c2cccn2c1=O)NC1CCCC1` [CBK282867], the viability at 28.5 h, 10 µM was 90.2%.

Regarding `Cc1ccc2oc(-c3cc(NC(=S)NC(=O)c4ccc([N+](=O)[O-])cc4)ccc3O)nc2c1` [CBK263923], the viability at 28.5 h, 10 µM is 94.3%.

Consider `COC(=O)c1c(NC(=O)C(=O)NCc2cccnc2)sc2c1CCCC2` [CBK269170], for which the viability at 28.5 h, 10 µM was 88.8%.

In the case of `CCn1c(C(O)c2ccc(OCc3ccccc3)cc2)nc2ccccc21` (stereo not shown) [CBK263458], the viability at 28.5 h, 10 µM was 96.1%.

`O=C(c1ccc(S(=O)(=O)c2ccc(F)cc2)c([N+](=O)[O-])c1)N1CCCCCC1` [CBK294453]: the viability at 28.5 h, 10 µM amounted to 78.3%.

In the case of `O=C(Cc1ccccc1[N+](=O)[O-])NCCCN1CCOCC1` [CBK265520], the viability at 28.5 h, 10 µM turned out to be 92%.

Consider `Cc1nc2c(C(=O)NCCCOC(C)C)cnn2c(C)c1Cc1cccc(Cl)c1` [CBK162043], for which the viability at 28.5 h, 10 µM was 97.1%.

Turning to `Cc1cc(C)c2c(N)c(C(=O)C(C)(C)C)sc2n1` [CBK115341], the viability at 28.5 h, 10 µM came out at 81.3%.

Consider `O=C(Cn1c(-c2cncs2)nc2ccccc21)Nc1ccc(C(=O)N2CCCCC2)cc1` [CBK269439], for which the viability at 28.5 h, 10 µM came out at 102%.

Consider `CS(=O)(=O)Nc1ncc(-c2ccco2)cc1C(=O)NCCc1c[nH]c2ccccc12` [CBK076569], for which the viability at 28.5 h, 10 µM came to 90.5%.

Regarding `OB(O)c1ccc(Oc2ccc(B(O)O)cc2)cc1` [CBK261159], the viability at 28.5 h, 10 µM is 102%.

In the case of `Cc1cc(C)n(C(C)CNC(=O)c2cc(C3CC3)on2)n1` (stereo not shown) [CBK283243], the viability at 28.5 h, 10 µM was found to be 103%.

In the case of `CC(OC(=O)c1ccc(O)cc1)C(=O)Nc1ccc(Cl)c(Cl)c1` (stereo not shown) [CBK264281], the viability at 28.5 h, 10 µM came to 96.4%.

For the molecule `N#Cc1cccnc1N1CCC(NC(=O)c2ccc3nccn3c2)CC1` [CBK306566], the viability at 28.5 h, 10 µM turned out to be 95.1%.

For the molecule `O=C1CN(S(=O)(=O)c2ccc(F)cc2Cl)CCN1` [CBK051081], the viability at 28.5 h, 10 µM was 109%.

For the molecule `O=c1[nH]cc(S(=O)(=O)N2CCN(Cc3ccccc3Cl)CC2)c(=O)[nH]1` [CBK285889], the viability at 28.5 h, 10 µM amounted to 97.1%.

On to `OCCN1CC2(CCN(Cc3cccc4cccnc34)CC2)c2ccccc21` [CBK137014], for which the viability at 28.5 h, 10 µM was 95.1%.

On to `COC(C)c1nc(C)c(C(=O)NC2CCCN(c3ccn(C)n3)C2=O)s1` (stereo not shown) [CBK305454], for which the viability at 28.5 h, 10 µM was determined as 100%.

With `Cc1cccc(NC(=O)c2ccc3n[nH]c(=S)n3c2)c1` [CBK288389], the viability at 28.5 h, 10 µM was determined as 88%.

For the molecule `Cc1ccc(CN2CCCN(C(=O)CCn3cnc4c(cnn4C)c3=O)CC2)cc1` [CBK297793], the viability at 28.5 h, 10 µM came out at 79.8%.

Turning to `O=C(O)CC(=Cc1csc(-c2ccc(Cl)cc2)n1)c1nc2ccccc2o1` [CBK297112], the viability at 28.5 h, 10 µM was 104%.

For the molecule `Cn1cncc1CN(CCCn1ccnc1)Cc1ccccc1Cl` [CBK283041], the viability at 28.5 h, 10 µM came out at 84.8%.

For the molecule `CCCCNCCOC1CCC[C@@H]1Cl` (stereo partly shown) [CBK009839], the viability at 28.5 h, 10 µM was 97.7%.

In the case of `Cc1cc(NC(=O)COc2ccc(Cl)cc2)nc2c1c(=O)oc1ccccc12` [CBK291230], the viability at 28.5 h, 10 µM came out at 92.9%.

Regarding `O=C(CSc1nnc(-c2ccncc2)n1-c1ccccc1)N1CCN(Cc2ccccc2)CC1` [CBK267240], the viability at 28.5 h, 10 µM stood at 105%.

On to `Cc1cc(CNC(=O)COc2cc(Cl)ccc2Cl)c2ccccc2n1` [CBK269788], for which the viability at 28.5 h, 10 µM came out at 89.1%.

`O=C(Cc1ncc(C(F)(F)F)cc1Cl)NO` [CBK007437]: the viability at 28.5 h, 10 µM was determined as 85%.

As for `c1ccc2c(c1)/C(=N/OCCCN1CCCCC1)CC21CCCCC1` [CBK013321], the viability at 28.5 h, 10 µM was 108%.

For the molecule `Cc1onc(-c2ccccc2)c1-c1n[nH]c(=S)o1` [CBK009044], the viability at 28.5 h, 10 µM stood at 76.7%.

As to `Cc1ccncc1C(=O)NCc1ccccc1` [CBK200193], the viability at 28.5 h, 10 µM amounted to 110%.

Turning to `Cc1c(NC(=O)CSc2nncn2C)ccc2nsnc12` [CBK269418], the viability at 28.5 h, 10 µM worked out at 104%.

As to `COCCN1CC(CNC(=O)Nc2cc(NC(C)=O)ccc2F)CC1=O` (stereo not shown) [CBK304398], the viability at 28.5 h, 10 µM is 82.4%.

On to `CNc1ncnc2c1ncn2[C@@H]1O[C@H](CO)[C@@H](O)[C@H]1O` [CBK200610], for which the viability at 28.5 h, 10 µM stood at 101%.

With `O=C(O)CCc1nc2ccccc2n1C1CCCCC1` [CBK286961], the viability at 28.5 h, 10 µM was determined as 87.5%.

With `CC(C)(C)c1cc(C(=O)N2CCn3cc(C(F)(F)F)nc3C2)[nH]n1` [CBK284748], the viability at 28.5 h, 10 µM was 87.7%.

On to `COc1cccc2cc([C@H]3CN(C(=O)C(C)(C)N)C[C@@H]3C(=O)N3CCC4(CC3)CN(S(C)(=O)=O)c3ccccc34)oc12` [CBK001347C], for which the viability at 28.5 h, 10 µM was found to be 117%.

On to `COc1ccc(NS(=O)(=O)c2cc(C(=O)O)sc2Br)cn1` [CBK297943], for which the viability at 28.5 h, 10 µM was 81.8%.

In the case of `O=C(Nc1ccc(Cl)cc1)N1CCN(CCCCc2ccc(F)cc2)CC1` [CBK017951C], the viability at 28.5 h, 10 µM came to 111%.

Consider `COc1cc(-c2cncc(NCCCO)n2)cc(OC)c1OC` [CBK065271], for which the viability at 28.5 h, 10 µM amounted to 95.5%.

As for `O=C(O)C1C2CCC(O2)C1C(=O)Nc1cnn(Cc2ccccc2)c1` (stereo not shown) [CBK286849], the viability at 28.5 h, 10 µM worked out at 96%.

As for `Cc1ccc(C2(O)CCN(CCNC(=O)C3CCCCC3)CC2)cc1` [CBK283323], the viability at 28.5 h, 10 µM amounted to 97.4%.

On to `O=C(c1nccs1)C1CCN(C(=O)Cc2ccc(F)cc2)CC1` [CBK284199], for which the viability at 28.5 h, 10 µM is 104%.

For the molecule `COc1ccc(C(=O)N2CCC3(CC2)NC(=O)c2ccc(C(F)(F)F)cc2O3)cc1OC` [CBK166265], the viability at 28.5 h, 10 µM came to 102%.

`COc1ccc(-c2nnc3c4ccccc4c(C)nn23)cc1S(=O)(=O)NC(C)c1ccccc1` (stereo not shown) [CBK266605]: the viability at 28.5 h, 10 µM was found to be 104%.

Regarding `Cc1ccc(S(=O)(=O)Nc2ccsc2C(=O)Nc2ccc(F)cc2)cc1` [CBK004571], the viability at 28.5 h, 10 µM stood at 91%.

With `Oc1ccc(-n2ncc(-c3ccc(F)cc3F)n2)cc1` [CBK112736], the viability at 28.5 h, 10 µM is 98%.

For `Cc1cc(NS(=O)(=O)c2ccc(Cl)c([N+](=O)[O-])c2)n(C)n1` [CBK067259], the viability at 28.5 h, 10 µM is 96.8%.

`N/C(CC(=O)Nc1cc(Cl)cc(Cl)c1)=N\O` [CBK228614]: the viability at 28.5 h, 10 µM worked out at 105%.

As to `COc1cc2cc3c(N)c(C(=O)N4CCCc5ccccc54)sc3nc2cc1OC` [CBK117298], the viability at 28.5 h, 10 µM stood at 102%.

Turning to `COc1cc2c(cc1OC)CN(C(=O)N(CCN)CCC(C)c1ccccc1)CC2` (stereo not shown) [CBK000612C], the viability at 28.5 h, 10 µM was determined as 80.9%.

Turning to `Fc1ccc2c(c1)[C@@H](Oc1cncc(NC3CCCNC3)n1)CCO2` (stereo partly shown) [CBK172256G], the viability at 28.5 h, 10 µM worked out at 92.6%.

`COc1cccc(CNC(C(=O)O)c2ccc3c(c2)OCO3)c1` (stereo not shown) [CBK015420D]: the viability at 28.5 h, 10 µM is 89.1%.

For the molecule `CCN1CC2(CCN(Cc3cc(OC)c(OC)c(OC)c3)CC2)c2ccccc21` [CBK131477], the viability at 28.5 h, 10 µM is 93.2%.

Consider `COC(=O)c1sc2[nH]c(CN(C)Cc3ccco3)nc(=O)c2c1C` [CBK306047], for which the viability at 28.5 h, 10 µM is 82.6%.

Turning to `CC(=O)Nc1ccc(Sc2ccccn2)cc1` [CBK085853], the viability at 28.5 h, 10 µM amounted to 101%.

For the molecule `Cc1ccc(CNC(=O)Cn2cc(-c3ccc(CN4CCC(C)CC4)cc3)nn2)cc1` [CBK164706], the viability at 28.5 h, 10 µM is 87.1%.

Consider `O=C(Nc1nc2ccccc2s1)c1cc([N+](=O)[O-])ccc1Cl` [CBK072428], for which the viability at 28.5 h, 10 µM was found to be 85.9%.

Turning to `O=C(CNS(=O)(=O)c1ccc(F)cc1)N1CCOCC1` [CBK042214], the viability at 28.5 h, 10 µM is 97.7%.

Consider `Cc1nonc1CN(C)C(=O)C1CC2C=CC1C21CC1` (stereo not shown) [CBK282076], for which the viability at 28.5 h, 10 µM amounted to 97.2%.

In the case of `CC(C)(C)N(Cc1ccccc1)C(=O)Cn1nc(C(=O)O)c2ccccc2c1=O` [CBK297498], the viability at 28.5 h, 10 µM turned out to be 86%.

Turning to `Cc1c(C(=O)N2CCCC(c3nc(C)n4ccsc34)C2)cnn1C` (stereo not shown) [CBK284593], the viability at 28.5 h, 10 µM was found to be 102%.

As for `Nc1nc(=O)n([C@@H]2O[C@H](CO)[C@H](O)C2O)cc1I` (stereo partly shown) [CBK201306], the viability at 28.5 h, 10 µM amounted to 107%.

Regarding `COc1ccc(-c2nc(NC(=O)Cc3ccc(N(C)C)cc3)cnc2-c2ccc(F)cc2)cn1` [CBK037582], the viability at 28.5 h, 10 µM turned out to be 97.9%.

With `CCOC(=O)C1(C2CCCCC2)CCN(C(=O)C2CCN(C)CC2)CC1` [CBK136948], the viability at 28.5 h, 10 µM was 92.7%.

`CN1CCN(c2nc(-c3ccc4c(c3)CCCC(=O)N4)cs2)CC1` [CBK305600]: the viability at 28.5 h, 10 µM was 98.6%.

As to `COc1cc(/C=C2\C(=O)NN(c3ccccc3)C2=O)ccc1OCCOc1cc(C)ccc1C` [CBK263947], the viability at 28.5 h, 10 µM was 80.5%.

With `O=C(C1CC1)N1CCC(C(=O)N(Cc2ccco2)c2ccccc2)CC1` [CBK298269], the viability at 28.5 h, 10 µM was 85.8%.

Take `COc1ccc(C)cc1CC(=O)N(C)CCN1CCCCC1` [CBK282750]: the viability at 28.5 h, 10 µM is 88.7%.

For `CN(C)CCN(Cc1ccccc1)c1ccccc1` [CBK012223C], the viability at 28.5 h, 10 µM stood at 114%.

Consider `O=C1CCC(=O)N1CCOc1nccnc1OC1CCN(CC2CCCCC2)CC1` [CBK084357], for which the viability at 28.5 h, 10 µM came out at 105%.

With `CC(C)(C)c1cc(C(c2ccccc2O)N2CCOCC2)cc(C(C)(C)C)c1O` (stereo not shown) [CBK262998], the viability at 28.5 h, 10 µM came to 86.4%.

The data set is the same for the next values; noted with them: human, hela cells, % viability, bulk resorufin, single well.
In the case of `O=C1NC(=O)N(c2ccc(F)cc2)C(=O)/C1=C/c1ccccc1OCc1ccc([N+](=O)[O-])cc1` [CBK263846], the viability at 28.5 h, 10 µM was 93.5%.
